Measurements: ChEMBL document CHEMBL3044923, “Synthesis of 9-O-glycosyl-berberine derivatives and bioavailability evaluation” (Med Chem Res, 2012)

What was measured:
Design in all cases: dose 100 mg/kg, route oral
Settings in all cases: in vivo
Rattus norvegicus [1] = test: Tmax in SPF Rattus norvegicus (rat) at 100 mg/kg, po; type: ADME, organism-based
Rattus norvegicus [2] = test: Cmax in SPF Rattus norvegicus (rat) at 100 mg/kg, po; type: ADME, organism-based
Rattus norvegicus [3] = test: AUC in SPF Rattus norvegicus (rat) at 100 mg/kg, po; type: ADME, organism-based, Plasma
Rattus norvegicus [4] = test: Half life in SPF Rattus norvegicus (rat) at 100 mg/kg, po; type: ADME, organism-based
Plasma = test: Stability in SPF Rattus norvegicus (rat) plasma assessed as berberine formation at 100 mg/kg, po; type: ADME, organism-based

Row | Tmax (Rattus norvegicus [1]) | Cmax (Rattus norvegicus [2]) | AUC (Rattus norvegicus [3]) | t1/2 (Rattus norvegicus [4]) | Stability (Plasma) | SMILES
1 | 3 h | 4.39 ng/mL | 17.329 ng·h/mL | 7.85 h |  | CCCCCCCCOc1c(OC)ccc2cc3[n+](cc12)CCc1cc2c(cc1-3)OCO2 [9-O-OCTYL-BERBERINE]
2 | 3.5 h | 3.71 ng/mL | 14.592 ng·h/mL | 7.86 h | Stable | CCCCCCCCCCCCOc1c(OC)ccc2cc3[n+](cc12)CCc1cc2c(cc1-3)OCO2 [9-O-DODECYL-BERBERINE]

Continued, compound first:

Row | SMILES | Tmax (Rattus norvegicus [1]) | Cmax (Rattus norvegicus [2]) | AUC (Rattus norvegicus [3]) | t1/2 (Rattus norvegicus [4]) | Stability (Plasma)
3 | COc1ccc2cc3[n+](cc2c1OC1O[C@H](CO)[C@@H](O)[C@H](O)[C@H]1O)CCc1cc2c(cc1-3)OCO2 (stereo partly drawn) [9-O-GLUCOSYL-BERBERINE] | 3 h | 63.4 ng/mL | 268.94 ng·h/mL | 7.58 h | Unstable
4 | COc1ccc2cc3[n+](cc2c1OC1OC[C@@H](O)[C@@H](O)[C@@H]1O)CCc1cc2c(cc1-3)OCO2 (stereo partly drawn) [9-O-ARABINOSYL-BERBERINE] | 3 h | 48.7 ng/mL | 205.146 ng·h/mL | 7.43 h | Unstable
5 | COc1ccc2cc3[n+](cc2c1OC[C@H](O)[C@H](O)CO)CCc1cc2c(cc1-3)OCO2 [9-O-ERYTHROL-BERBERINE] | 3 h | 37.5 ng/mL | 180.316 ng·h/mL | 7.31 h | Unstable
6 | COc1ccc2cc3[n+](cc2c1OC)CCc1cc2c(cc1-3)OCO2 [BERBERINE] | 2 h | 6.79 ng/mL | 24.184 ng·h/mL | 7.88 h | 
